Source: US20210401926A1, “PHARMACEUTICAL FORMULATIONS OF PEPTIDE INHIBITORS” (CANIMGUIDE THERAPEUTICS AB, priority 2018, published 2021)
Where no end group is shown, it is not given here.

Tests used:
[1] = test system: PBMCs; experiment: Direct binding to PBMCs (immunocytochemistry, rosetting of coated beads); settings: immunocytochemistry or rosetting of coated beads
[2] = test system: healthy PBMC's; experiment: PBMC activation, CD69 or CD71 by flow cytometry, normal human AB serum; format: cell-based; settings: 40 μg/mL, 24 hours, RPMI plus 10% human AB serum
Procedure: FIG. 2A-B are a series of graphs illustrating effects of the full length peptide P28R and the 6 amino acid central sequence (32230, FFVKLS, SEQ ID NO: 1) in culture medium containing normal human AB serum. Activation is determined as percentage of cells with enhanced marker CD69 or CD71 using flow cytometry. PBMCs were incubated with the peptides (40 μg/mL) for 24 hours in RPMI plus 10% human AB serum. FIG. 2A illustrates the results of two experiments (420 and 422) performed for each peptide. FIG. 2B illustrates the results of two experiments (424 and 426) performed for each peptide.
P28R (SEQ ID NO: 2) can stimulate PBMC's from healthy controls in short term cultures when RPMI plus 10% normal human AB serum is used as culture medium. Truncations of P28R were also assessed for their ability to activate PBMC's. PBMCs were incubated with the peptides (40 μg/mL) for 24 hours in RPMI plus 10% human AB serum. PBMC activation was measured as percent cells with enhanced expression of either CD69 (FIG. 2A) or CD71 (FIG. 2B) using flow cytometry. Two experiments were performed for each peptide.
A test for direct stimulatory effects on immune cells was performed.

[3] = test system: PBMCs; experiment: PBMC activation (CD69) in culture medium containing cancer sera; format: cell-based; settings: sera from dogs with cancer or human patients with cancer instead of normal AB serum
Procedure: FIG. 3 is a graph illustrating a comparison of the full length peptide P28R and the 6 amino acid “P28 core” sequence (32230, FFVKLS, SEQ ID NO: 1) in culture medium containing sera from two different cancer patients (“human ca serum 1” 430 and (“human ca serum 2” 432).
Additionally, P28R and P28 core were tested for their ability to alleviate immunosuppression in cancer cells.

Substance	binding to PBMCs [1]	PBMC activation (enhanced expression of CD69 or CD71) [2]	PBMC activation (enhanced expression of CD69) [3]
biotinylated P28R: biotinylated P28R (KKLDTFFVKLSLFTER; also: biotinylated, site not given here)	bind directly to PBMCs	–	–
peptide 32251: truncation of P28R, SEQ ID NO: 4 (KKLDTFFPKLSLFTER; Peptide 32251)	–	did not activate healthy PBMC's	–
FFVKLS (Peptide 32230)	–	did not activate healthy PBMC's	activated PBMCs
